Converted amounts (≈) assume the structure as drawn.
tested on: Cryptococcus neoformans; assay: In vitro antifungal activity against Cryptococcus neoformans CY1059 was determined at pH 7 for inoculum size of 1*10e4 cfu/ml by broth dilution method; assay type: functional

In order of falling IC80:
1. OC(Cn1cncn1)(Cn1cncn1)c1ccc(F)cc1F [FLUCONAZOLE]  11 µg/mL (≈ 35.9 µM)
2. CCCCCCC/C=C/C[C@@H]1OC[C@H](C)[C@H](OC)[C@H]1COC(=O)CN  3.2 µg/mL (≈ 9 µM)
3. CCc1ccc(CC[C@@H]2CCC(C)(C)[C@H](OC)[C@H]2Cn2cncn2)cc1  0.37 µg/mL (≈ 1.04 µM)
4. CCc1ccc(CC[C@@H]2CCC(C)(C)[C@H](OC)[C@H]2Cn2ccnc2)cc1  0.14 µg/mL (≈ 0.395 µM)
5. CCC(C)n1ncn(-c2ccc(N3CCN(c4ccc(OC[C@H]5CO[C@](Cn6cncn6)(c6ccc(Cl)cc6Cl)O5)cc4)CC3)cc2)c1=O (stereo not given in full) [ITRACONAZOLE]  0.046 µg/mL (≈ 0.0652 µM)

tested on: Aspergillus fumigatus; assay: In vitro antifungal activity against Aspergillus fumigatus CF1003 was determined at pH 7 for inoculum size of 1*10e4 cfu/ml by broth dilution method; assay type: functional

Compared with `CCc1ccc(CC[C@@H]2CCC(C)(C)[C@H](OC)[C@H]2Cn2cncn2)cc1`, `CCc1ccc(CC[C@@H]2CCC(C)(C)[C@H](OC)[C@H]2Cn2ccnc2)cc1` is lower in IC80: > 200 µg/mL for the first, 0.37 µg/mL (≈ 1.04 µM) for the second.

Going from `OC(Cn1cncn1)(Cn1cncn1)c1ccc(F)cc1F` [FLUCONAZOLE] to `CCC(C)n1ncn(-c2ccc(N3CCN(c4ccc(OC[C@H]5CO[C@](Cn6cncn6)(c6ccc(Cl)cc6Cl)O5)cc4)CC3)cc2)c1=O` (stereo not given in full) [ITRACONAZOLE], the IC80 falls from 200 µg/mL (≈ 653 µM) to 0.02 µg/mL (≈ 0.0283 µM) (10000-fold).

Work on `CCCCCCC/C=C/C[C@@H]1OC[C@H](C)[C@H](OC)[C@H]1COC(=O)CN` yielded an IC80 of 0.73 µg/mL (≈ 2.05 µM).

tested on: Candida albicans; assay: In vitro antifungal activity against Candida albicans CY3003 was determined at pH 7 for inoculum size of 1*10e4 cfu/ml by broth dilution method; assay type: functional

In order of rising IC80:
1. CCC(C)n1ncn(-c2ccc(N3CCN(c4ccc(OC[C@H]5CO[C@](Cn6cncn6)(c6ccc(Cl)cc6Cl)O5)cc4)CC3)cc2)c1=O (stereo not given in full) [ITRACONAZOLE]  0.0012 µg/mL (≈ 0.0017 µM)
2. CCc1ccc(CC[C@@H]2CCC(C)(C)[C@H](OC)[C@H]2Cn2ccnc2)cc1  0.0025 µg/mL (≈ 0.00705 µM)
3. CCc1ccc(CC[C@@H]2CCC(C)(C)[C@H](OC)[C@H]2Cn2cncn2)cc1  0.012 µg/mL (≈ 0.0338 µM)
4. CCCCCCC/C=C/C[C@@H]1OC[C@H](C)[C@H](OC)[C@H]1COC(=O)CN  0.97 µg/mL (≈ 2.73 µM)
5. OC(Cn1cncn1)(Cn1cncn1)c1ccc(F)cc1F [FLUCONAZOLE]  1.1 µg/mL (≈ 3.59 µM)

tested on: Candida albicans; assay: In vitro antifungal activity against Candida albicans CY1002 was determined at pH 7 for inoculum size of 1*10e4 cfu/ml by broth dilution method; assay type: functional

In order of falling IC80:
1. OC(Cn1cncn1)(Cn1cncn1)c1ccc(F)cc1F [FLUCONAZOLE]  2.6 µg/mL (≈ 8.49 µM)
2. CCCCCCC/C=C/C[C@@H]1OC[C@H](C)[C@H](OC)[C@H]1COC(=O)CN  1.8 µg/mL (≈ 5.06 µM)
3. CCc1ccc(CC[C@@H]2CCC(C)(C)[C@H](OC)[C@H]2Cn2cncn2)cc1  0.098 µg/mL (≈ 0.276 µM)
4. CCc1ccc(CC[C@@H]2CCC(C)(C)[C@H](OC)[C@H]2Cn2ccnc2)cc1  0.059 µg/mL (≈ 0.166 µM)
5. CCC(C)n1ncn(-c2ccc(N3CCN(c4ccc(OC[C@H]5CO[C@](Cn6cncn6)(c6ccc(Cl)cc6Cl)O5)cc4)CC3)cc2)c1=O (stereo not given in full) [ITRACONAZOLE]  0.03 µg/mL (≈ 0.0425 µM)

tested on: Candida albicans; assay: In vitro antifungal activity against Candida albicans CY1005 was determined at pH 7 for inoculum size of 1*10e4 cfu/ml by broth dilution method; assay type: functional

In order of falling IC80:
1. OC(Cn1cncn1)(Cn1cncn1)c1ccc(F)cc1F [FLUCONAZOLE]  2.8 µg/mL (≈ 9.14 µM)
2. CCCCCCC/C=C/C[C@@H]1OC[C@H](C)[C@H](OC)[C@H]1COC(=O)CN  1.58 µg/mL (≈ 4.44 µM)
3. CCc1ccc(CC[C@@H]2CCC(C)(C)[C@H](OC)[C@H]2Cn2cncn2)cc1  0.042 µg/mL (≈ 0.118 µM)
4. CCc1ccc(CC[C@@H]2CCC(C)(C)[C@H](OC)[C@H]2Cn2ccnc2)cc1  0.012 µg/mL (≈ 0.0338 µM)
5. CCC(C)n1ncn(-c2ccc(N3CCN(c4ccc(OC[C@H]5CO[C@](Cn6cncn6)(c6ccc(Cl)cc6Cl)O5)cc4)CC3)cc2)c1=O (stereo not given in full) [ITRACONAZOLE]  0.0056 µg/mL (≈ 0.00794 µM)

tested on: Aspergillus fumigatus; assay: In vitro antifungal activity against Aspergillus fumigatus CF1004 was determined at pH 7 for inoculum size of 1*10e4 cfu/ml by broth dilution method; assay type: functional

First: CCc1ccc(CC[C@@H]2CCC(C)(C)[C@H](OC)[C@H]2Cn2cncn2)cc1
Second: CCc1ccc(CC[C@@H]2CCC(C)(C)[C@H](OC)[C@H]2Cn2ccnc2)cc1
The IC80 of the first is higher: > 200 µg/mL for the first, 0.19 µg/mL (≈ 0.536 µM) for the second.

Going from `OC(Cn1cncn1)(Cn1cncn1)c1ccc(F)cc1F` [FLUCONAZOLE] to `CCC(C)n1ncn(-c2ccc(N3CCN(c4ccc(OC[C@H]5CO[C@](Cn6cncn6)(c6ccc(Cl)cc6Cl)O5)cc4)CC3)cc2)c1=O` (stereo not given in full) [ITRACONAZOLE], the IC80 falls from 180 µg/mL (≈ 588 µM) to < 0.0004 µg/mL.

Work on `CCCCCCC/C=C/C[C@@H]1OC[C@H](C)[C@H](OC)[C@H]1COC(=O)CN` yielded an IC80 of 0.52 µg/mL (≈ 1.46 µM).

tested on: Cryptococcus neoformans; assay: In vitro antifungal activity against Cryptococcus neoformans CY1057 was determined at pH 7 for inoculum size of 1*10e4 cfu/ml by broth dilution method; assay type: functional

In order of falling IC80:
1. OC(Cn1cncn1)(Cn1cncn1)c1ccc(F)cc1F [FLUCONAZOLE]  3.8 µg/mL (≈ 12.4 µM)
2. CCCCCCC/C=C/C[C@@H]1OC[C@H](C)[C@H](OC)[C@H]1COC(=O)CN  2.19 µg/mL (≈ 6.16 µM)
3. CCc1ccc(CC[C@@H]2CCC(C)(C)[C@H](OC)[C@H]2Cn2cncn2)cc1  0.82 µg/mL (≈ 2.31 µM)
4. CCc1ccc(CC[C@@H]2CCC(C)(C)[C@H](OC)[C@H]2Cn2ccnc2)cc1  0.12 µg/mL (≈ 0.338 µM)
5. CCC(C)n1ncn(-c2ccc(N3CCN(c4ccc(OC[C@H]5CO[C@](Cn6cncn6)(c6ccc(Cl)cc6Cl)O5)cc4)CC3)cc2)c1=O (stereo not given in full) [ITRACONAZOLE]  0.022 µg/mL (≈ 0.0312 µM)

— ChEMBL document CHEMBL1151576, “Synthesis of cyclohexyl analogs of restricticin” (Bioorg Med Chem Lett, 1994)
